Laboratory results from ChEMBL document CHEMBL3046560, “Steroidal saponins from the leaves of Yucca de-smetiana and their in vitro antitumor activity: structure activity relationships through a molecular modeling approach” (Med Chem Res, 2013).

Columns and labels:
[1] = test system: HepG2; assay: Antitumor activity against Homo sapiens (human) HepG2 cells assessed as cell growth inhibition after 48 hr by MTT assay; format: functional, cell-based
[2] = test system: A549; assay: Antitumor activity against Homo sapiens (human) A549 cells assessed as cell growth inhibition after 48 hr by MTT assay; format: functional, cell-based
[3] = test system: HCT-116; assay: Antitumor activity against Homo sapiens (human) HCT116 cells assessed as cell growth inhibition after 48 hr by MTT assay; format: functional, cell-based
[4] = test system: MCF7; assay: Ratio of doxorubicin IC50 to compound IC50 for Homo sapiens (human) MCF7 cells; format: functional
[5] = test system: MCF7; assay: Antitumor activity against Homo sapiens (human) MCF7 cells assessed as cell growth inhibition after 48 hr by MTT assay; format: functional, cell-based
[6] = test system: HepG2; assay: Ratio of doxorubicin IC50 to compound IC50 for Homo sapiens (human) HepG2 cells; format: functional
[7] = Homo sapiens, HepG2, 48 h, read-out: IC50
[8] = Homo sapiens, A549, 48 h, read-out: IC50
[9] = Homo sapiens, HCT-116, 48 h, read-out: IC50
[10] = Homo sapiens, MCF7, 48 h, read-out: IC50

Compound	IC50 [1, 7]	IC50 [2, 8]	IC50 [3, 9]	Ratio IC50 [4]	growth inhibition (GI) [1]	growth inhibition (GI) [2]	growth inhibition (GI) [5]	IC50 [5, 10]	growth inhibition (GI) [3]	IC50 ([1]; hepg2)	IC50 ([2]; a549)	IC50 ([5]; mcf7)	IC50 ([3]; hct-116)	Ratio IC50 [6]
COc1cccc2c1C(=O)c1c(O)c3c(c(O)c1C2=O)C[C@@](O)(C(=O)CO)C[C@@H]3O[C@H]1C[C@H](N)[C@H](O)[C@H](C)O1 [DOXORUBICIN]	7.36 µM	0.84 µM	6.86 µM	–	–	–	–	–	–	–	–	–	–	–
C[C@@H]1CC[C@@]2(OC1)O[C@H]1C[C@H]3[C@@H]4CC[C@@H]5C[C@@H](O[C@@H]6O[C@H](CO)[C@H](O[C@@H]7O[C@H](CO)[C@@H](O)[C@H](O[C@@H]8O[C@H](CO)[C@@H](O)[C@H](O)[C@H]8O)[C@H]7O[C@@H]7O[C@H](CO)[C@H](O)[C@H](O)[C@H]7O[C@@H]7OC[C@@H](O)[C@H](O)[C@H]7O)[C@H](O)[C@H]6O)CC[C@]5(C)[C@H]4CC[C@]3(C)[C@H]1[C@@H]2C [Desmettianoside C]	1.1 µM	10.2 µM	2.4 µM	2	Dose-dependent effect	Dose-dependent effect	Dose-dependent effect	2.6 µM	Dose-dependent effect	–	–	–	–	–
C[C@@H](CC[C@@]1(O)O[C@H]2C[C@H]3[C@@H]4CC[C@@H]5C[C@@H](O[C@@H]6O[C@H](CO)[C@@H](O)[C@H](O)[C@H]6O[C@@H]6O[C@H](CO)[C@H](O)[C@H](O)[C@H]6O)CC[C@]5(C)[C@H]4CC[C@]3(C)[C@H]2[C@@H]1C)CO[C@@H]1O[C@H](CO)[C@@H](O)[C@H](O)[C@H]1O	–	–	–	–	–	–	–	–	–	Not Active	Not Active	Not Active	Not Active	–
C[C@@H]1CC[C@@]2(OC1)O[C@H]1C[C@H]3[C@@H]4CC[C@@H]5C[C@@H](O[C@@H]6O[C@H](CO)[C@@H](O)[C@H](O)[C@H]6O[C@@H]6O[C@H](CO)[C@H](O)[C@H](O)[C@H]6O)CC[C@]5(C)[C@H]4CC[C@]3(C)[C@H]1[C@@H]2C	3.5 µM	16.5 µM	4.4 µM	–	Dose-dependent effect	Dose-dependent effect	Dose-dependent effect	4 µM	Dose-dependent effect	–	–	–	–	2
CO[C@]1(CC[C@H](C)CO[C@@H]2O[C@H](CO)[C@@H](O)[C@H](O)[C@H]2O)O[C@H]2C[C@H]3[C@@H]4CC[C@@H]5C[C@@H](O[C@@H]6O[C@H](CO)[C@@H](O)[C@H](O)[C@H]6O[C@@H]6O[C@H](CO)[C@H](O)[C@H](O)[C@H]6O)CC[C@]5(C)[C@H]4CC[C@]3(C)[C@H]2[C@@H]1C	–	–	–	–	–	–	–	–	–	Not Active	Not Active	Not Active	Not Active	–
